Calls of active or inactive are those of the source.
Key:
[1] = biological target: T1, High affinity choline transporter 1 (Homo sapiens, UniProt Q9GZV3); experiment: human choline transporter blockers, potency – cell-based, 5-point CRC, membrane potential dye, dose response (AID 504840); assay type: functional
T1 sequence (Q9GZV3 whole entry): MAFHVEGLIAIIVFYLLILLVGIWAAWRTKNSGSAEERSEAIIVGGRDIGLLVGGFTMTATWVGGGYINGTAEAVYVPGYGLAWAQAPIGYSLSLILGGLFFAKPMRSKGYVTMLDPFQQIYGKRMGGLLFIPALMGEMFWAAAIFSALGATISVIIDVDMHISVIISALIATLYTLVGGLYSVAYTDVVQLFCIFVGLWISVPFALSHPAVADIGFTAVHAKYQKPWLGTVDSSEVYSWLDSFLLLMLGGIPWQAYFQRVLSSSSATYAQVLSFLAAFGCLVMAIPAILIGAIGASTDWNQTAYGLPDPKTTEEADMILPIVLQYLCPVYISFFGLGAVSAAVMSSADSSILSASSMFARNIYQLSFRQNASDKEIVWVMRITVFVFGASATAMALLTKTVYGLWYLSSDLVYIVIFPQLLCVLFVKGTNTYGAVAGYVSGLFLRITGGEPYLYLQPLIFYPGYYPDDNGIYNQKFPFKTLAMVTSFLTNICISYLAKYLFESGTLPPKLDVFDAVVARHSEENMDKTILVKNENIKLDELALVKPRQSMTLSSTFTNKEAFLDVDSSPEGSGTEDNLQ

[2] = biological target: FAD-linked sulfhydryl oxidase ALR (Homo sapiens, UniProt P55789); experiment: ALR-catalysed DTT oxidation blockers – biochemical, H2O2 detection, luminescence, cherry-pick, dose response (AID 493248)
[3] = viability of PTEN-deleted HCT116 cells – cell-based, HCT116 PTEN knockout, dose response (AID 1047); assay type: functional;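 also: HCT116 colon tumor cells with PTEN knocked out; cells exposed to compound for 60 hours before readout; potency for loss of cell viability measured by luminescence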
[4] = viability of HCT116 lacking mutant beta-catenin – cell-based, human colon tumor, dose response (AID 1045); assay type: functional;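 also: HCT116 colon tumor cells with beta catenin knocked out; cells exposed to compound for 60 hours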
[5] = biological target: T2, Leucine aminopeptidase (Plasmodium falciparum 3D7, UniProt Q8IL11); experiment: P. falciparum M17LAP inhibitors, primary screen, biochemical, fluorogenic H-Leu-NHMec substrate, 1536-well (AID 1619); assay type: functional
T2 sequence (Q8IL11 whole entry): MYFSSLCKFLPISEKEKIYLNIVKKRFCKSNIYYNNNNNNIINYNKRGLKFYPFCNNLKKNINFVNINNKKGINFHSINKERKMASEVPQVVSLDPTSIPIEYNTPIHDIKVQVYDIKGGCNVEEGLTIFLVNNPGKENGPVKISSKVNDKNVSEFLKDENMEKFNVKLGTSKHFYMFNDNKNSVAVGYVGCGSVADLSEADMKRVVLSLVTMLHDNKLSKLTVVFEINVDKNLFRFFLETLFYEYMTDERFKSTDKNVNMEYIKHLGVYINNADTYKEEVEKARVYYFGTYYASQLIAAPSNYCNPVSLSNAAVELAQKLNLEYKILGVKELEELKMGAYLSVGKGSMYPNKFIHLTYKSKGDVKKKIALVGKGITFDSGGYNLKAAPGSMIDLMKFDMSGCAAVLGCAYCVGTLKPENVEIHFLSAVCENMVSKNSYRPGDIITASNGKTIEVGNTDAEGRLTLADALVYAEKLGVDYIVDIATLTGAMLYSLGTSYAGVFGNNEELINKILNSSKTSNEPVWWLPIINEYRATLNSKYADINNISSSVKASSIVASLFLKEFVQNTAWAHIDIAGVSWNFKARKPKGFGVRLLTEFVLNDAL

[6] = Luminescence Cell-Based Dose Retest to Confirm Inhibitors of Cancer Stem Cells. [Related pubchem assays (depositor defined):AID2717, AID2721]; assay type: functional; details: Homo sapiens
[7] = DRD fibroblast viability loss – cell-based, non-viral oncogenic, luminescence, dose response (AID 1934); assay type: functional; details: Homo sapiens
[8] = tested on: BJ; experiment: cells; assay type: functional, cell-based; details: Homo sapiens
[9] = tested on: BJ; experiment: BJ-TERT fibroblast viability loss – cell-based, RAS-independent, luminescence, dose response (AID 1933); assay type: functional; details: Homo sapiens
[10] = tested on: BJ; experiment: BJ-TERT-LT-ST fibroblast viability loss – cell-based, RAS-independent, luminescence, dose response (AID 1935); assay type: functional; details: Homo sapiens;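 also: BJ fibroblasts immortalized with TERT plus LT and ST oncogenes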
[11] = biological target: Cytochrome P450 2D6 (Homo sapiens, UniProt P10635);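 also: CYP2D6 member of a cytochrome P450 panel assay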
[12] = tested on: Streptococcus; experiment: GAS UMAA2166 growth inhibition – luminescence, BacTiterGlo, counter-screen for streptokinase expression inhibitor project, dose response (AID 1915); assay type: functional, organism-based;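 also: potency for reduction of bacterial viability or growth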
[13] = Trypanosoma cruzi growth suppression in host cells – NIH3T3 host cells, beta-gal luminescence, confirmation (AID 2044); assay type: functional, cell-based;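 also: intracellular parasites grown in NIH/3T3 mouse fibroblasts as host cells; luminescent beta-galactosidase reporter signal from transgenic T. cruzi replicating inside host cells; inhibitors lower the luminescence signal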
[14] = biological target: T3, Streptokinase A (Streptococcus pyogenes serotype M1, UniProt P10520); experiment: viability-normalized secreted streptokinase activity reduction – plasminogen activation absorbance, OD405, dose response (AID 1914); assay type: functional, Streptococcus pyogenes M1 GAS;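 also: secreted streptokinase activity via plasminogen activation per viability signal from cell pellet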
T3 sequence (P10520 whole entry): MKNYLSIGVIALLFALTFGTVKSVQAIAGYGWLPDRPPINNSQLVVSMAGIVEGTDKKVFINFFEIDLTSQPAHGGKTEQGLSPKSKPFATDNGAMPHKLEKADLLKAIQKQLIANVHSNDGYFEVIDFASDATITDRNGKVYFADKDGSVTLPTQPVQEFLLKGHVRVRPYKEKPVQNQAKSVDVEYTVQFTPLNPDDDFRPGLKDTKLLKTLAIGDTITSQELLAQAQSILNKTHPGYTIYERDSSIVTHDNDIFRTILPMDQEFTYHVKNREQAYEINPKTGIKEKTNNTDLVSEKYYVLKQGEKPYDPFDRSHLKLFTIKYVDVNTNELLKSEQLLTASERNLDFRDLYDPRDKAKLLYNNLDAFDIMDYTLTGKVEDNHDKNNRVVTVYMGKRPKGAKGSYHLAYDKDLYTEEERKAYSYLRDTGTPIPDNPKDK

[15] = tested on: Streptococcus sp. 'group A'; experiment: Streptococcus pyogenes SK(-)GAS viability under kanamycin – luminescence, BacTiterGlo, confirmation, counter-screen for streptokinase expression inhibitor project, dose response (AID 1900); assay type: functional, organism-based
[16] = NIH3T3 cell viability loss – ATP luminescence, mouse fibroblasts, counter-screen, dose response (AID 2010); assay type: functional, cell-based;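 also: cells exposed to compound for about 90 hours before reading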
[17] = biological target: T4, Zinc finger protein mex-5 (Caenorhabditis elegans, UniProt Q9XUB2); experiment: potency of MEX-5 RNA-binding blockers – biochemical, C. elegans, fluorescence polarization, dose response (AID 1960)
T4 sequence (Q9XUB2 whole entry): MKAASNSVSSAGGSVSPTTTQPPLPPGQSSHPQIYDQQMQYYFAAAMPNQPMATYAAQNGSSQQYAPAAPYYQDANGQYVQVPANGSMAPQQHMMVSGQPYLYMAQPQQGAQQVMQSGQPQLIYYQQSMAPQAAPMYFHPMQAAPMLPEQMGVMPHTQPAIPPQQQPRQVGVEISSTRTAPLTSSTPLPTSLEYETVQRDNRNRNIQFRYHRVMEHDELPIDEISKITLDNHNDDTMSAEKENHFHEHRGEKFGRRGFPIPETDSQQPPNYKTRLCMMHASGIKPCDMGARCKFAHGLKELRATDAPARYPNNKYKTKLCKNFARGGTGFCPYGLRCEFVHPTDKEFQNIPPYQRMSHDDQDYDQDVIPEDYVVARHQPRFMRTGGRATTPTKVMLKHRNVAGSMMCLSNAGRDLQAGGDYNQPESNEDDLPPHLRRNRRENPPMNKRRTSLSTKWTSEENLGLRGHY

[18] = biological target: T5, Polyadenylate-binding protein 1 (Homo sapiens, UniProt P11940); experiment: MLLE domain peptide-binding blockers, IC50 – biochemical, fluorescence polarization, FITC-PAM2 peptide, dose response (AID 602259); assay type: functional; details: read-out: IC50_Mean
[19] = biological target: T5, Polyadenylate-binding protein 1; experiment: MLLE binding blockers, Cy5 peptide tracer – biochemical, fluorescence polarization, Cy5-PAM2 peptide, secondary, miRNA deadenylation inhibitor project, dose response (AID 602260); assay type: functional; details: read-out: IC50_Mean
[20] = biological target: T6, RNA-binding protein pos-1 (Caenorhabditis elegans, UniProt G5EF15); experiment: disruptors of C. elegans POS-1 RNA interaction – biochemical, fluorescence polarization, dose response (AID 1964);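 also: purified POS-1 fused to maltose binding protein made in E. coli; potency of compounds blocking POS-1 binding to fluorescent RNA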
T6 sequence (G5EF15 whole entry): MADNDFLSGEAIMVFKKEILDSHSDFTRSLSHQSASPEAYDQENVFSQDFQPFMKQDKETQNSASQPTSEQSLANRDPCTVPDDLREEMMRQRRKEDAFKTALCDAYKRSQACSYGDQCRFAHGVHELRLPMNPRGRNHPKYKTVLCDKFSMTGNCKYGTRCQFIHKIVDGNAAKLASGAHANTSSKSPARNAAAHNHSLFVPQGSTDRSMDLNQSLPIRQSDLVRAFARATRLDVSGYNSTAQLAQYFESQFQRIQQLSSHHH

FAD-linked sulfhydryl oxidase ALR, sequence (P55789 whole entry): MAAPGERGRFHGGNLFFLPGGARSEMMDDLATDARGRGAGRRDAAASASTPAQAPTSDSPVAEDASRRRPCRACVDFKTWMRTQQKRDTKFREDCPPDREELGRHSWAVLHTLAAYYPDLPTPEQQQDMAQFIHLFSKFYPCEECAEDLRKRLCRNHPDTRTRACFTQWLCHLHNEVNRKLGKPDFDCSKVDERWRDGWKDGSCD
T5 sequence (P11940 whole entry, the tested form may be a part): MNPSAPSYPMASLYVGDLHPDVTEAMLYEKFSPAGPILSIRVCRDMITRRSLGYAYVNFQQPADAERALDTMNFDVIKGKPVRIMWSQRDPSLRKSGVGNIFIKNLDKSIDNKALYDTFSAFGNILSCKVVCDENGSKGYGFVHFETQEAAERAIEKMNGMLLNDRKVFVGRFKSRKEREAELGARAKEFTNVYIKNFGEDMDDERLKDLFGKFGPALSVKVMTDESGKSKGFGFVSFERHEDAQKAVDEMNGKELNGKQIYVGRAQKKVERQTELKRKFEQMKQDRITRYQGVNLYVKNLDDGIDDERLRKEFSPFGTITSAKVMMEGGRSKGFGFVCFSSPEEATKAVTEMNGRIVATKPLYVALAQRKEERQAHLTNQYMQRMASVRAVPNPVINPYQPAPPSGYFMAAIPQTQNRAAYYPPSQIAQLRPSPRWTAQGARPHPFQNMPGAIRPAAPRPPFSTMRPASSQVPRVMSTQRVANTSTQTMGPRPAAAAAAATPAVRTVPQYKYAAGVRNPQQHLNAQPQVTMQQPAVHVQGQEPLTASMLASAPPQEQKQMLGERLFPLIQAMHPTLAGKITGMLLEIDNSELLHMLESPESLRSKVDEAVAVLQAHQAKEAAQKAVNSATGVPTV
Cytochrome P450 2D6, sequence (P10635 whole entry): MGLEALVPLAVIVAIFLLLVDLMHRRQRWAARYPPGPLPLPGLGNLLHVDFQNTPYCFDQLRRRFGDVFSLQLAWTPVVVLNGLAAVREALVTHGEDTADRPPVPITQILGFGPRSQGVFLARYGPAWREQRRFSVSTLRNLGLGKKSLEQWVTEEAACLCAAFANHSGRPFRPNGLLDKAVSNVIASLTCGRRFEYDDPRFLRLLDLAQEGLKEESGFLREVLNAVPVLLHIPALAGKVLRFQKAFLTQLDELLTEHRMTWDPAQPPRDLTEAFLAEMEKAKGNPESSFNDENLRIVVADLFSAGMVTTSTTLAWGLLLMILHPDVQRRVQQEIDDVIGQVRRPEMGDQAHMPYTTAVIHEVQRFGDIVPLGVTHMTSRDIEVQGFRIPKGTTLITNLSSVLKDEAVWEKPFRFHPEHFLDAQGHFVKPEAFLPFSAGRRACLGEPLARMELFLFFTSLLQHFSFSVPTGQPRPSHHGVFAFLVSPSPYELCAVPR

CCc1cc2c(N3CCN(c4nnc(CC)s4)CC3)ncnc2s1
IC50 [1]: 3.63 µM (active)

COc1ccc(-c2cc(-c3ccc(N)cc3)nc(N)c2C#N)cc1OC
AC50 [2]: 0.794 µM (active)

CCOC(=O)c1cn(-c2ccc(F)c(F)c2)c2c(F)c(F)c(F)c(F)c2c1=O
EC50 [3]: 19.5 µM (active) | EC50 [4]: 22.4 µM (active)

COc1ccc(S(=O)(=O)N2CCN=C2SCc2cccnc2)cc1
AC50 [2]: 0.243 µM (active)

CC(=O)Nc1cccc(NC(=O)Cc2nc(-c3ccccc3)sc2-c2ccc(C)cc2)c1
EC50 [3]: 17.1 µM (active) | EC50 [4]: 16.6 µM (active)

COc1ccccc1C(=O)N1CCN=C1SCc1cccnc1
AC50 [2]: 0.009 µM (active)

Cc1cccc(C(=O)Nc2nnc(-c3ccncc3)o2)c1
AC50 [2]: 2.35 µM (active)

COc1ccc(-c2cc(=O)oc3cc(OC(C)C(=O)O)ccc23)cc1 (configuration not stated)
IC50 [5]: 43.9 µM (active)

Cn1nc(C(F)(F)F)c(C(=O)Nc2cccc(C(F)(F)F)c2)c1SCc1ccc(Cl)cc1
EC50 [3]: 22.4 µM (active) | AC50 [6]: 6.27 µM (active) | EC50 [4]: 26.7 µM (active)

CCN(CC)S(=O)(=O)c1cccc(-c2csc(C)n2)c1
AC50 [2]: 4.41 µM (active)

CCCc1cc(C(=O)NN=C(S)NC(C)c2ccccc2)cs1 (configuration not stated)
IC50 [1]: 12.6 µM (active)

O=C(O)CCc1ccc(-c2ccc(Cl)cc2)o1
AC50 [2]: 2.22 µM (active)

Cc1ccc(NC(=O)CSc2nnc(NC(=O)CN3CCOCC3)s2)cc1
IC50 [5]: 9.15 µM (active)

Nc1nn(-c2ccccc2)c(N)c1N=Nc1cccc(F)c1
EC50 [7]: 1.94 µM (active) | EC50 [8]: 124 µM (active) | EC50 [9]: 3.92 µM (active) | EC50 [10]: 36.7 µM (inconclusive)

COc1ccc(C(=O)N(C)C2CCCc3ccccc32)cc1OC1CCN(C(C)C)CC1 (configuration not stated)
IC50 [1]: 12.6 µM (active)

Cn1c(CCN2CCCCC2)nc2cc(NS(=O)(=O)c3ccc(F)cc3)ccc21
EC50 [3]: 51.6 µM (active) | EC50 [4]: 55.9 µM (active)

Cc1ccc(-c2nc3ccccc3o2)cc1NC(=S)NC(=O)c1cc2ccccc2o1
EC50 [3]: 5.17 µM (active) | EC50 [4]: 4.68 µM (active)

Cc1cccc(Nc2nc(N)nc(CC(=O)CSc3ccc(Cl)cc3)n2)c1
EC50 [3]: 56 µM (active) | EC50 [4]: 35.6 µM (active)

CCN(CC)c1ccc2c(c1)OC(N)=C(C#N)C2c1cccnc1 (configuration not stated)
AC50 [11]: 15.8 µM (inconclusive) | EC50 [7]: 0.347 µM (active) | EC50 [8]: 0.341 µM (inconclusive) | EC50 [9]: 0.368 µM (inconclusive) | EC50 [10]: 0.396 µM (inconclusive)

CC(=O)Nc1sc(C)c(C)c1C(=O)OCC(=O)Nc1cc(S(=O)(=O)N2CCCCC2)ccc1Cl
EC50 [3]: 43.1 µM (active) | EC50 [4]: 133 µM (active)

COc1cccc(/C=C2/SC(=O)N(CC(=O)N3CCc4ccccc4C3)C2=O)c1OCC(=O)O
IC50 [5]: 16.2 µM (active)

Oc1cc(-c2ccccc2)nc2nc(COc3ccccc3)nn12
IC50 [5]: 7.61 µM (active)

Cc1noc(NS(=O)(=O)c2ccc(N/C=C\C(=O)c3ccc4c(c3)OCO4)cc2)c1C
IC50 [5]: 13.9 µM (active)

CC1=C(C(=O)Nc2ccc([N+](=O)[O-])cc2)C(c2cccc(C(F)(F)F)c2)N=C(S)N1c1ccccc1 (configuration not stated)
EC50 [3]: 9.06 µM (active) | EC50 [12]: 20.5 µM (active) | EC50 [13]: 2.05 µM (active) | EC50 [14]: 18.8 µM (active) | EC50 [15]: 7.84 µM (active) | EC50 [16]: > 60 µM (inconclusive) | EC50 [4]: 11.5 µM (active)

CCOc1ccccc1NC(=O)Nc1ccc(OC)nc1
EC50 [17]: 29.5 µM (active) | IC50 [18]: 35.9 µM (inactive) | IC50 [19]: > 66 µM (inactive) | EC50 [20]: 31.6 µM (active)

COC(=O)c1ccccc1NC(=O)CN1C(=O)c2ccccc2S1(=O)=O
IC50 [5]: 18.1 µM (active)

O=C(CSc1nnc(NC2CCCCC2)s1)NN1C(=O)NC2(CCCCC2)C1=O
IC50 [5]: 10.5 µM (active)

COc1cc(C(=O)NCC(=O)N2CCN(S(=O)(=O)c3cc(C)ccc3C)CC2)cc(OC)c1OC
EC50 [7]: 14.5 µM (active) | EC50 [8]: 31.8 µM (active) | EC50 [9]: 13.4 µM (active) | EC50 [10]: 16.3 µM (active)

Cc1cccc(-c2cnn(-c3cccc([N+](=O)[O-])c3)c2N)c1
AC50 [2]: 0.287 µM (active)

O=C(CCNS(=O)(=O)c1ccccc1C(F)(F)F)N1CCN(c2ccccc2O)CC1
AC50 [2]: 5.51 µM (active)

From ChEMBL document CHEMBL1201862, “PubChem BioAssay data set” (2004)
